In data set [1] the target is T1, SOAT1 (Homo sapiens, UniProt P35610).
T1 sequence (P35610 1-550): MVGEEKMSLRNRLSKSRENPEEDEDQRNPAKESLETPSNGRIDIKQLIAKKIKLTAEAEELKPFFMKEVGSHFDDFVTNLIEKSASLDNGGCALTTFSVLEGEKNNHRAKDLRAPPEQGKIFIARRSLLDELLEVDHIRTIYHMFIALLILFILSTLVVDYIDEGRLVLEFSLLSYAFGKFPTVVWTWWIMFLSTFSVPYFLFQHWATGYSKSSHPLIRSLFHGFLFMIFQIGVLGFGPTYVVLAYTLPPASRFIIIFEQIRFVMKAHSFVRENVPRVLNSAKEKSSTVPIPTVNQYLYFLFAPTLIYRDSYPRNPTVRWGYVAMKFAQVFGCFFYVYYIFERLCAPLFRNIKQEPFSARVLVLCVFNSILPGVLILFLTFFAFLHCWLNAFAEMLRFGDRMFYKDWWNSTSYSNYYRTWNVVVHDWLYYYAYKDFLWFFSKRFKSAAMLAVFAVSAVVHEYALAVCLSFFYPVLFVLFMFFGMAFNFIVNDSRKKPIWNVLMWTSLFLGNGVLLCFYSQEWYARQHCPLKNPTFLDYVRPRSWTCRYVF
Nature of the data set: SPR (Biacore T200, CM5 chip, immobilised SOAT1). It counts as binding. The note with it: PBS running buffer with 5% DMSO; 0.0195 nM to 20 μM.

In data set [2] the target is T1, SOAT1. Nature of the data set: SPR single-concentration screen (Biacore T200, CM5 chip, immobilised SOAT1). In kind it is binding. The conditions noted are these: 100 nmol/L compound; PBS with 5% DMSO; positive control.
Data set [3] deals with the molecule itself. Nature of the data set: SEC; Superdex 200 10/300 GL in 25 mM Tris pH 8.0, 150 mM NaCl, 0.02% GDN, after nickel affinity purification; fractions checked by SDS-PAGE.

`CN(C)CC[C@H](CSc1ccccc1)Nc1ccc(S(=O)(=O)NC(=O)c2ccc(N3CCN(Cc4ccccc4-c4ccc(Cl)cc4)CC3)cc2)cc1[N+](=O)[O-]` [ABT-737] registered a KD in data set [1] of 7.19 E^−7 M.
With `CCCCCCCCCCC(C)(C)C(=O)Nc1c(OC)cc(OC)cc1OC` [CI-976], the “SPR single-concentration screen (Biacore T200, CM5 chip, immobilised SOAT1)” value in data set [2] is “including three positive controls: avasimibe, nevanimibe, and CI-976”.
Take `CC(C)c1cc(C(C)C)c(CC(=O)NS(=O)(=O)Oc2c(C(C)C)cccc2C(C)C)c(C(C)C)c1` [avasimibe]: the “SPR single-concentration screen (Biacore T200, CM5 chip, immobilised SOAT1)” value in data set [2] is “including three positive controls: avasimibe, nevanimibe, and CI-976”.
`Cc1cc(C)c2c(c1)[C@@H](N(Cc1cc(C(F)(F)F)cc(C(F)(F)F)c1)c1nnn(C)n1)CCCN2C[C@H]1CC[C@H](C(=O)O)CC1` [evacetrapib] registered a KD in data set [1] of 3.91 E^−6 M.
Still for that read-out and setting: with `Cc1cn(-c2cc(NC(=O)c3ccc(C)c(Nc4nccc(-c5cccnc5)n4)c3)cc(C(F)(F)F)c2)cn1` [nilotinib] the figure was 2.02E^−7 M.

B1: sterol O-acyltransferase 1 (SOAT1), human, with a carboxy-terminal 6xHis-tag (enzyme, UniProt P35610-1 1-550, looked up)
chain: T1 sequence (P35610 1-550)
notes: sterol O-acyltransferase 1 (SOAT1), human; NCBI ID 6646) cloned into pCAG; no removal of the His-tag is described; also called SOAT1 protein
As to B1, the “stoichiometry N” value in data set [3] stood at 2.

Values taken from publication PMC9361549, “High-affinity SOAT1 ligands remodeled cholesterol metabolism program to inhibit tumor growth” (BMC Medicine, 2022).
